Data as given in the supplement of paper PMC4858399.
Where a name gives a salt, the structure may show the parent alone.

Tests used:
Details in all cases: exposure time 48 h
[1] = test system: Caenorhabditis elegans N2; assay: AC50 for larval growth inhibition (Hill fit); higher = less potent
Method in brief: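 Worms were synchronised C. elegans N2 L1 larvae, 50 per well of a 96-well plate, kept 48 h at 20°C in K-medium with killed OP50, 1% DMSO and 0.5–200 µM chemical. Size was taken as COPAS Biosort extinction, log-transformed and averaged per well, using only wells with at least 10 worms. AC50 was estimated by a constrained Hill fit with weighted genetic-algorithm regression; values outside the range are censored.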

[2] = test system: Caenorhabditis elegans N2; assay: lowest effective concentration for larval growth inhibition (size below effect threshold); higher = less potent
Method in brief: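 Log-transformed well means of per-worm extinction, read as size on a Biosort, came from 50 C. elegans N2 L1 larvae per 96-well grown 48 h at 20°C in K-medium with killed bacteria, 1% DMSO and 0.5 to 200 µM chemical. The lowest effective concentration is the first dose at which the plate-adjusted mean size is below the threshold and stays below it at every higher dose. The threshold is 5.665.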

[3] = test system: Caenorhabditis elegans N2; assay: mean nematode size ln(EXT) after 48 h, plate-adjusted (DMSO control set to 6) (ln(EXT), control-adjusted); higher = larger nematodes / less growth inhibition
Method in brief: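 Synchronised C. elegans N2 L1 larvae (50 per well, 4–6 wells per treatment) were grown for 48 h at 20°C in K-medium with killed OP50, 1% DMSO and 0.5–200 µM chemical. The Biosort measured each worm's extinction, and debris was removed by a growth model. Values were natural-logged and averaged per well. Mean size was then plate-adjusted by subtracting the vehicle control mean and adding 6.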

Compound	AC50 for larval growth inhibition [1]	lowest effective concentration [2]	mean nematode size ln(EXT) (ln) ([3]; 0.5 µM)	mean nematode size ln(EXT) (ln) ([3]; 1 µM)	mean nematode size ln(EXT) (ln) ([3]; 5 µM)	mean nematode size ln(EXT) (ln) ([3]; 10 µM)	mean nematode size ln(EXT) (ln) ([3]; 50 µM)	mean nematode size ln(EXT) (ln) ([3]; 100 µM)	mean nematode size ln(EXT) (ln) ([3]; 200 µM)
Clc1nc(Cl)nc(Nc2ccccc2Cl)n1 [Anilazine]	> 200 µM	200 µM	6.11	6.01	6.13	6.11	5.99	5.78	5
c1ccc2cc3ccccc3cc2c1 [Anthracene]	2.12 µM	5 µM	5.97	5.76	4.34	3.78	4.06	4.36	4.12
CCCCN1C(=O)[C@@H]([C@H](O)C2CCCCC2)NC(=O)C12CCN(Cc1ccc(Oc3ccc(C(=O)O)cc3)cc1)CC2 [Aplaviroc hydrochloride]	> 200 µM	200 µM	5.87	5.82	5.8	5.88	5.87	5.74	5.55
COP(=O)(OC)SCn1c(=O)oc2cc(Cl)cnc21 [Azamethiphos]	> 200 µM	200 µM	6.07	5.94	5.91	5.93	5.88	5.75	5.57
Cn1cnc([N+](=O)[O-])c1Sc1ncnc2[nH]cnc12 [Azathioprine]	> 200 µM	200 µM	5.89	5.89	5.93	5.86	5.89	5.84	5.36
COP(=S)(OC)SCn1nnc2ccccc2c1=O [Azinphos-methyl]	170 µM	50 µM	6.09	6.12	6.04	5.95	5.61	5.49	3.9
c1ccc(/N=N/c2ccccc2)cc1 [Azobenzene]	91.6 µM	10 µM	5.73	5.67	5.67	5.61	5.21	4.48	3.5
CO/C=C(/C(=O)OC)c1ccccc1Oc1cc(Oc2ccccc2C#N)ncn1 [Azoxystrobin]	> 200 µM	200 µM	5.84	5.87	5.93	5.9	5.8	5.85	5.5
CNC(=O)Oc1cccc2c1OC(C)(C)O2 [Bendiocarb]	> 200 µM	200 µM	5.79	5.85	5.8	5.79	5.81	5.76	5.25
CCCCN(CC)c1c([N+](=O)[O-])cc(C(F)(F)F)cc1[N+](=O)[O-] [Benfluralin]	175 µM	50 µM	5.76	5.73	5.82	5.7	5.31	5.04	4.16
O=C(Nc1ccccc1)c1ccccc1I [Benodanil]	39.3 µM	5 µM	5.99	5.98	5.62	5.66	4.16	4.19	3.37
CCCCNC(=O)n1c(NC(=O)OC)nc2ccccc21 [Benomyl]	> 200 µM	10 µM	6.03	6.07	5.68	5.58	5.36	5.4	4.35
CC(C)N1C(=O)c2ccccc2NS1(=O)=O [Bentazone]	> 200 µM	200 µM	6.05	5.93	5.96	6	6.01	6.05	5.55
c1ccc2cc3c(ccc4ccccc43)cc2c1 [Benz[a]anthracene]	24.9 µM	1 µM	5.89	4.38	5.22	5.01	4.59	4.58	3.32
c1ccc2c(c1)-c1cccc3c1c-2cc1ccccc13 [Benzo[b]fluoranthene]	< 0.5 µM	≤ 0.5 µM	5.22	4.39	4.09	4.15	4.17	5.53	4.32
O=C(c1ccccc1)c1ccccc1 [Benzophenone]	> 200 µM	100 µM	5.86	6.01	5.94	5.89	5.79	5.66	4.65
ClC(Cl)(Cl)c1ccccc1 [Benzotrichloride]	> 200 µM	200 µM	5.84	5.87	5.73	5.82	5.78	5.75	4.93
O=c1[nH]c2ccc([S+]([O-])CCN3CCC(Cc4ccc(F)cc4)CC3)cc2o1 (stereo not drawn) [Besonprodil]	> 200 µM	200 µM	5.75	6	5.87	5.9	5.87	5.82	5.31
c1ccc(-c2ccccc2)cc1 [Biphenyl]	164 µM	200 µM	5.85	5.87	5.9	5.96	5.92	5.74	3.88
CC(C)(c1ccc(O)cc1)c1ccc(O)cc1 [Bisphenol A]	> 200 µM	200 µM	5.83	5.86	5.99	5.88	5.95	5.96	5.46
CCC(C)(c1ccc(O)cc1)c1ccc(O)cc1 [Bisphenol B]	87.1 µM	100 µM	5.9	5.81	5.9	5.74	5.87	5.14	4.74
O=C(Nc1ccccc1-c1ccc(Cl)cc1)c1cccnc1Cl [Boscalid]	9.83 µM	50 µM	6.09	6	5.75	5.68	4.94	5.21	5.39
O=[N+]([O-])C(Br)(CO)CO [Bronopol]	> 200 µM	50 µM	5.88	5.93	5.93	5.84	5.65	5.56	4.95

Compound	AC50 for larval growth inhibition [1]	lowest effective concentration [2]	mean nematode size ln(EXT) (ln) ([3]; 0.5 µM)	mean nematode size ln(EXT) (ln) ([3]; 1 µM)	mean nematode size ln(EXT) (ln) ([3]; 5 µM)	mean nematode size ln(EXT) (ln) ([3]; 10 µM)	mean nematode size ln(EXT) (ln) ([3]; 50 µM)	mean nematode size ln(EXT) (ln) ([3]; 100 µM)	mean nematode size ln(EXT) (ln) ([3]; 200 µM)
CC(C)N1C(=O)N(c2ccccc2)CS/C1=N\C(C)(C)C [Buprofezin]	181 µM	200 µM	5.88	5.75	5.68	5.8	5.93	6.04	3.51
CCCCOCN(C(=O)CCl)c1c(CC)cccc1CC [Butachlor]	13.8 µM	200 µM	5.93	6.1	6.07	6.12	6.05	6.08	5.44
CC(C)N(Cc1ccccc1)C(=O)C(C)(C)C [Butam]	> 200 µM	200 µM	5.94	5.88	5.91	5.86	5.88	5.86	5.61
CCC(C)Nc1c([N+](=O)[O-])cc(C(C)(C)C)cc1[N+](=O)[O-] (stereo not drawn) [Butralin]	48.9 µM	50 µM	5.81	5.77	5.75	5.8	4.89	4.04	4.68
CCCCOC(=O)c1ccccc1 [Butyl benzoate]	100 µM	200 µM	6	5.94	5.85	5.83	6	5.76	5.53
CCSC(=O)N(CC(C)C)CC(C)C [Butylate]	196 µM	200 µM	5.97	5.89	6.11	5.97	6.05	6.06	5.65
CCCCOC(=O)c1ccc(O)cc1 [Butylparaben]	103 µM	200 µM	5.84	5.8	5.75	5.78	5.96	5.68	5.19
CCCCCCCCCCCCCCCS(=O)(=O)Oc1ccccc1 [C10-21 sulfonic acids phenyl esters]	169 µM	200 µM	6.06	6.02	5.89	6	5.93	5.96	3.65
COCCOC[C@H](CC1(C(=O)N[C@H]2CC[C@@H](C(=O)O)CC2)CCCC1)C(=O)Oc1ccc2c(c1)CCC2 [Candoxatril]	> 200 µM	200 µM	5.96	5.83	5.92	5.81	5.91	5.85	5.66
O=C1C2CC=CCC2C(=O)N1SC(Cl)(Cl)Cl (stereo not drawn) [Captan]	85.6 µM	50 µM	5.8	5.75	5.73	5.84	5.45	4.27	3.67
CC(=O)c1ccc2c(c1)[C@H](NC(=O)c1ccc(F)cc1)[C@@H](O)C(C)(C)O2 [Carabersat]	127 µM	200 µM	5.79	5.88	5.9	5.89	5.99	5.93	5.65
CNC(=O)Oc1cccc2c1OC(C)(C)C2 [Carbofuran]	198 µM	100 µM	5.92	5.92	5.84	5.89	5.75	5.39	4.54
CCCCN(CCCC)SN(C)C(=O)Oc1cccc2c1OC(C)(C)C2 [Carbosulfan]	60.2 µM	1 µM	5.76	5.51	5.04	4.86	5.15	4.44	4
CCOC(=O)C(Cl)Cc1cc(-n2nc(C)n(C(F)F)c2=O)c(F)cc1Cl (stereo not drawn) [Carfentrazone-ethyl]	> 200 µM	200 µM	6.04	5.98	6.04	6.04	5.93	5.98	5.59
Cc1c(C(=O)O)c(O)cc2c1C(=O)c1c(O)c([C@@H]3O[C@H](CO)[C@@H](O)[C@H](O)[C@H]3O)c(O)c(O)c1C2=O [Carminic acid]	115 µM	100 µM	5.97	5.92	5.91	5.96	5.97	5.46	
Cc1ccc(-c2cc(C(F)(F)F)nn2-c2ccc(S(N)(=O)=O)cc2)cc1 [Celecoxib]	30.3 µM	50 µM	5.9	5.92	5.8	5.81	4.7	4.53	4.22
Nc1cc(Cl)cc(C(=O)O)c1Cl [Chloramben]	> 200 µM	50 µM	5.87	5.9	5.88	5.9	5.46	5.58	5.3
ClC1=C(Cl)C2(Cl)C3C(Cl)C(Cl)CC3C1(Cl)C2(Cl)Cl (stereo not drawn) [Chlordane]	8.58 µM	5 µM	5.98	5.93	5.24	4.63	3.8	3.81	3.48
O=C(O)C1C(C(=O)O)C2(Cl)C(Cl)=C(Cl)C1(Cl)C2(Cl)Cl (stereo not drawn) [Chlorendic acid]	> 200 µM	100 µM	5.71	5.85	5.82	5.84	5.76	5.65	5.45
CCOP(=S)(OCC)OC(Cl)C(Cl)(Cl)Cl (stereo not drawn) [Chlorethoxyfos]	13.2 µM	50 µM	5.75	5.76	5.76	5.7	4.54	5.09	3.42
CCOC(=O)C(O)(c1ccc(Cl)cc1)c1ccc(Cl)cc1 [Chlorobenzilate]	39.4 µM	10 µM	6.05	5.97	5.87	5.64	4.21	4.08	3.11
COc1cc(Cl)c(OC)cc1Cl [Chloroneb]	> 200 µM	200 µM	5.75	5.71	5.58	5.7	5.96	5.97	5.47
N#Cc1c(Cl)c(Cl)c(Cl)c(C#N)c1Cl [Chlorothalonil]	193 µM	200 µM	5.66	5.94	5.95	5.95	5.88	5.85	4.4
